What all share (assay): relative viability (nuclei count vs DMSO), 5 days (fraction); higher = more cells survive
Compound in the test “AZD1208 + Tozasertib”: N[C@@H]1CCCN(c2c(/C=C3\SC(=O)NC3=O)cccc2-c2ccccc2)C1 [AZD1208] + Cc1cc(Nc2cc(N3CCN(C)CC3)nc(Sc3ccc(NC(=O)C4CC4)cc3)n2)n[nH]1 [Tozasertib] (partner 0.1 µM)
The procedure, abridged: (§1)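 Medians of duplicate plates are given as relative viability. That measure is the nuclei count in treated wells divided by the count in vehicle wells. Counts were taken on 4× images of lung cancer cell lines in 1536-well plates, 5 days after pin-tool dosing the day after seeding with one drug alone or a fixed anchor-drug dose plus five library-drug doses (not always all listed) in √10 steps.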

Compound in the test “AZD1208 + Palbociclib”: N[C@@H]1CCCN(c2c(/C=C3\SC(=O)NC3=O)cccc2-c2ccccc2)C1 [AZD1208] + CC(=O)c1c(C)c2cnc(Nc3ccc(N4CCNCC4)cn3)nc2n(C2CCCC2)c1=O [Palbociclib] (partner 0.5 µM)
An outline of the steps:
as §1

Compound in the test “AZD1208 + Alpelisib”: N[C@@H]1CCCN(c2c(/C=C3\SC(=O)NC3=O)cccc2-c2ccccc2)C1 [AZD1208] + Cc1nc(NC(=O)N2CCC[C@H]2C(N)=O)sc1-c1ccnc(C(C)(C)C(F)(F)F)c1 [Alpelisib] (partner 2 µM)
An outline of the steps: as §1

Compound in the test “AZD1208 + Phenformin”: N[C@@H]1CCCN(c2c(/C=C3\SC(=O)NC3=O)cccc2-c2ccccc2)C1 [AZD1208] + N=C(N)NC(=N)NCCc1ccccc1 [Phenformin] (partner 250 µM)
The procedure, abridged: as §1

For the cell line NCI-H647, the relative viability with AZD1208 + Tozasertib (first compound 0.08 µM) is 0.239; with AZD1208 + Tozasertib (first compound 0.253 µM), 0.345; with AZD1208 + Tozasertib (first compound 0.8 µM), 0.175; with AZD1208 + Tozasertib (first compound 2.53 µM) it was 0.295; with AZD1208 + Tozasertib (first compound 8 µM) it was 0.163; with AZD1208 + Palbociclib (first compound 0.08 µM) it was 0.322. The relative viability with AZD1208 + Palbociclib (first compound 0.253 µM) amounted to 0.486; with AZD1208 + Palbociclib (first compound 0.8 µM) it was 0.324; with AZD1208 + Palbociclib (first compound 2.53 µM) it was 0.397; with AZD1208 + Palbociclib (first compound 8 µM), 0.304; in the test with AZD1208 + Alpelisib (first compound 0.08 µM), 1.03; with AZD1208 + Alpelisib (first compound 0.253 µM), 1.28. The relative viability was 1.06 with AZD1208 + Alpelisib (first compound 0.8 µM); 1.06 with AZD1208 + Alpelisib (first compound 2.53 µM); 1.01 with AZD1208 + Alpelisib (first compound 8 µM); 0.459 with AZD1208 + Phenformin (first compound 0.08 µM); 0.837 with AZD1208 + Phenformin (first compound 0.253 µM); 0.344 in the test with AZD1208 + Phenformin (first compound 0.8 µM). For the same cell line, the relative viability in the test with AZD1208 + Phenformin (first compound 2.53 µM) was 0.344; in the test with AZD1208 + Phenformin (first compound 8 µM) it was 0.352.
NCI-H650: the relative viability in the test with AZD1208 + Tozasertib (first compound 0.08 µM) was 0.732; with AZD1208 + Tozasertib (first compound 0.253 µM), 0.725; with AZD1208 + Tozasertib (first compound 0.8 µM), 0.67; with AZD1208 + Tozasertib (first compound 2.53 µM), 0.684; with AZD1208 + Tozasertib (first compound 8 µM), 0.66; in the test with AZD1208 + Palbociclib (first compound 0.08 µM), 0.309. In addition, the relative viability with AZD1208 + Palbociclib (first compound 0.253 µM) is 0.287; in the test with AZD1208 + Palbociclib (first compound 0.8 µM), 0.314; with AZD1208 + Palbociclib (first compound 2.53 µM) it was 0.29; in the test with AZD1208 + Palbociclib (first compound 8 µM), 0.289; with AZD1208 + Alpelisib (first compound 0.08 µM), 1.11; in the test with AZD1208 + Alpelisib (first compound 0.253 µM), 1.15. Besides, the relative viability with AZD1208 + Alpelisib (first compound 0.8 µM) was 1.07; with AZD1208 + Alpelisib (first compound 2.53 µM), 0.967; with AZD1208 + Alpelisib (first compound 8 µM), 0.823; in the test with AZD1208 + Phenformin (first compound 0.08 µM), 0.535; with AZD1208 + Phenformin (first compound 0.253 µM), 0.51; in the test with AZD1208 + Phenformin (first compound 0.8 µM) it was 0.448. Besides, the relative viability was found to be 0.416 with AZD1208 + Phenformin (first compound 2.53 µM) and 0.427 in the test with AZD1208 + Phenformin (first compound 8 µM).
In the case of NCI-H661, the relative viability was found to be 0.351 in the test with AZD1208 + Tozasertib (first compound 0.08 µM); 0.347 in the test with AZD1208 + Tozasertib (first compound 0.253 µM); 0.361 with AZD1208 + Tozasertib (first compound 0.8 µM); 0.358 with AZD1208 + Tozasertib (first compound 2.53 µM); 0.355 with AZD1208 + Tozasertib (first compound 8 µM); 0.418 with AZD1208 + Palbociclib (first compound 0.08 µM). For the same cell line, the relative viability with AZD1208 + Palbociclib (first compound 0.253 µM) amounted to 0.394; in the test with AZD1208 + Palbociclib (first compound 0.8 µM), 0.428; in the test with AZD1208 + Palbociclib (first compound 2.53 µM) it was 0.414; with AZD1208 + Palbociclib (first compound 8 µM), 0.4; with AZD1208 + Alpelisib (first compound 0.08 µM), 0.706; with AZD1208 + Alpelisib (first compound 0.253 µM), 0.815. The relative viability was 0.529 with AZD1208 + Alpelisib (first compound 0.8 µM); 0.724 with AZD1208 + Alpelisib (first compound 2.53 µM); 0.665 with AZD1208 + Alpelisib (first compound 8 µM); 0.264 with AZD1208 + Phenformin (first compound 0.08 µM); 0.286 in the test with AZD1208 + Phenformin (first compound 0.253 µM); 0.276 with AZD1208 + Phenformin (first compound 0.8 µM). Further, the relative viability amounted to 0.295 in the test with AZD1208 + Phenformin (first compound 2.53 µM) and 0.268 with AZD1208 + Phenformin (first compound 8 µM).
For NCI-H727, the relative viability stood at 0.673 with AZD1208 + Tozasertib (first compound 0.08 µM); 0.636 in the test with AZD1208 + Tozasertib (first compound 0.253 µM); 0.568 in the test with AZD1208 + Tozasertib (first compound 0.8 µM); 0.566 with AZD1208 + Tozasertib (first compound 2.53 µM); 0.585 with AZD1208 + Tozasertib (first compound 8 µM); 0.597 with AZD1208 + Palbociclib (first compound 0.08 µM). The relative viability with AZD1208 + Palbociclib (first compound 0.253 µM) is 0.628; in the test with AZD1208 + Palbociclib (first compound 0.8 µM), 0.64; in the test with AZD1208 + Palbociclib (first compound 2.53 µM), 0.614; with AZD1208 + Palbociclib (first compound 8 µM), 0.56; with AZD1208 + Alpelisib (first compound 0.08 µM) it was 0.542; in the test with AZD1208 + Alpelisib (first compound 0.253 µM), 0.543. For the same cell line, the relative viability with AZD1208 + Alpelisib (first compound 0.8 µM) amounted to 0.496; with AZD1208 + Alpelisib (first compound 2.53 µM), 0.497; with AZD1208 + Alpelisib (first compound 8 µM), 0.387; with AZD1208 + Phenformin (first compound 0.08 µM), 0.359; with AZD1208 + Phenformin (first compound 0.253 µM) it was 0.497; in the test with AZD1208 + Phenformin (first compound 0.8 µM), 0.514. The relative viability was 0.532 with AZD1208 + Phenformin (first compound 2.53 µM) and 0.524 with AZD1208 + Phenformin (first compound 8 µM).
In the case of NCI-H838, the relative viability came out at 0.277 with AZD1208 + Tozasertib (first compound 0.08 µM); 0.261 in the test with AZD1208 + Tozasertib (first compound 0.253 µM); 0.267 in the test with AZD1208 + Tozasertib (first compound 0.8 µM); 0.268 in the test with AZD1208 + Tozasertib (first compound 2.53 µM); 0.264 with AZD1208 + Tozasertib (first compound 8 µM); 0.21 with AZD1208 + Palbociclib (first compound 0.08 µM). The relative viability in the test with AZD1208 + Palbociclib (first compound 0.253 µM) was found to be 0.231; with AZD1208 + Palbociclib (first compound 0.8 µM), 0.209; in the test with AZD1208 + Palbociclib (first compound 2.53 µM), 0.187; with AZD1208 + Palbociclib (first compound 8 µM), 0.201; with AZD1208 + Alpelisib (first compound 0.08 µM), 0.962; with AZD1208 + Alpelisib (first compound 0.253 µM), 1.13. Besides, the relative viability with AZD1208 + Alpelisib (first compound 0.8 µM) was determined as 0.887; with AZD1208 + Alpelisib (first compound 2.53 µM), 0.959; in the test with AZD1208 + Alpelisib (first compound 8 µM) it was 0.882; with AZD1208 + Phenformin (first compound 0.08 µM), 0.524; with AZD1208 + Phenformin (first compound 0.253 µM), 0.704; with AZD1208 + Phenformin (first compound 0.8 µM), 0.425. In addition, the relative viability with AZD1208 + Phenformin (first compound 2.53 µM) is 0.583; with AZD1208 + Phenformin (first compound 8 µM), 0.485.
Regarding NCI-H1355, the relative viability stood at 0.539 with AZD1208 + Tozasertib (first compound 0.08 µM); 0.474 with AZD1208 + Tozasertib (first compound 0.253 µM); 0.407 with AZD1208 + Tozasertib (first compound 0.8 µM); 0.389 with AZD1208 + Tozasertib (first compound 2.53 µM); 0.308 with AZD1208 + Tozasertib (first compound 8 µM); 0.396 in the test with AZD1208 + Palbociclib (first compound 0.08 µM). Also, the relative viability with AZD1208 + Palbociclib (first compound 0.253 µM) was found to be 0.37; with AZD1208 + Palbociclib (first compound 0.8 µM) it was 0.372; with AZD1208 + Palbociclib (first compound 2.53 µM), 0.385; with AZD1208 + Palbociclib (first compound 8 µM), 0.318; with AZD1208 + Alpelisib (first compound 0.08 µM) it was 0.826; with AZD1208 + Alpelisib (first compound 0.253 µM) it was 0.832. Further, the relative viability in the test with AZD1208 + Alpelisib (first compound 0.8 µM) amounted to 0.704; in the test with AZD1208 + Alpelisib (first compound 2.53 µM) it was 0.771; with AZD1208 + Alpelisib (first compound 8 µM), 0.64; with AZD1208 + Phenformin (first compound 0.08 µM), 0.479; with AZD1208 + Phenformin (first compound 0.253 µM), 0.469; in the test with AZD1208 + Phenformin (first compound 0.8 µM), 0.416. In addition, the results for the relative viability with AZD1208 + Phenformin (first compound 2.53 µM) and with AZD1208 + Phenformin (first compound 8 µM) were 0.447 and 0.392, respectively.
Take NCI-H1395: the relative viability with AZD1208 + Tozasertib (first compound 0.08 µM) was 0.803; in the test with AZD1208 + Tozasertib (first compound 0.253 µM) it was 0.68; in the test with AZD1208 + Tozasertib (first compound 0.8 µM), 0.677; with AZD1208 + Tozasertib (first compound 2.53 µM), 0.629; in the test with AZD1208 + Tozasertib (first compound 8 µM), 0.571; with AZD1208 + Palbociclib (first compound 0.08 µM) it was 0.598. Besides, the relative viability with AZD1208 + Palbociclib (first compound 0.253 µM) turned out to be 0.653; in the test with AZD1208 + Palbociclib (first compound 0.8 µM), 0.572; in the test with AZD1208 + Palbociclib (first compound 2.53 µM), 0.62; with AZD1208 + Palbociclib (first compound 8 µM), 0.521; in the test with AZD1208 + Alpelisib (first compound 0.08 µM), 0.925; with AZD1208 + Alpelisib (first compound 0.253 µM), 1.07. Further, the relative viability was 1.1 with AZD1208 + Alpelisib (first compound 0.8 µM); 1.24 with AZD1208 + Alpelisib (first compound 2.53 µM); 0.851 with AZD1208 + Alpelisib (first compound 8 µM); 0.442 in the test with AZD1208 + Phenformin (first compound 0.08 µM); 0.438 with AZD1208 + Phenformin (first compound 0.253 µM); 0.46 with AZD1208 + Phenformin (first compound 0.8 µM). The values for the relative viability in the test with AZD1208 + Phenformin (first compound 2.53 µM) and in the test with AZD1208 + Phenformin (first compound 8 µM) were 0.506 and 0.417, respectively.

Values taken from the supplement of paper PMC10307832.
